The nature of the data set: Solubility in water. In kind it is physicochemical. The following applies: pH 5.8, water, at 25° C. and pH of 5.8 to 6.0. The procedure:
A wide range of container sizes may be employed. Container size may be conveniently categorised as Low-Volume, e.g., 100 ml or less and High-Volume, e.g., above 100 ml and typically 250 ml.

Values after ≈ are worked out from the molar mass of the structure shown.

As usually defined, the solubility is how much of the substance goes into solution per volume.

On to `NC(=O)N1c2ccccc2CC(=O)c2ccccc21` [oxcarbazepine, 10,11-Dihydro-10-oxo-5H-di-benz[b,f]azepine-5-carboxamide], for which the solubility was 3.2 to 4.2 mg/mL (≈ 12.7 to 16.6 mM).

For the origin of these results see patent publication US8119148B2, “Suspension comprising oxcarbazepine” (Novartis Pharmaceuticals Corporation, priority 1999, dated 2012).
